Experimental data published in article PMC8708382, “Heterocyclic Cathinones as Inhibitors of Kynurenine Aminotransferase II—Design, Synthesis, and Evaluation” (Pharmaceuticals, 2021).
Where two headings read alike, the source gives them in different places.

What was measured:
[1] = tested on: KAT-II; details: published KAT-II inhibitors, Figure 2; cited from earlier work
[2] = target: T1, hKAT-II (Homo sapiens, UniProt Q8N5Z0); experiment: Coupled fluorescence in vitro inhibition assay of hKAT-II; format: biochemical; details: for Inhibitory Activity [%I ± SEM] c = 1 µM: 30 min pre-incubation with enzyme, mean ± SEM
T1 construct: hexahistidine tag (N); made in house; host or cells: E. coli BL21(DE3)-RIL
Method: The inhibitory activity of amino ketones 11 and 12 was evaluated using a fluorimetric in vitro assay. The activity was determined as the percentage of inhibition (%I) at a concentration of 1 µmol/L and also as IC50 values (Table 1). The observed inhibitory activity confirmed the validity of the computational model and was suitable to conduct a synthesis-directed SAR study around the predicted heterocyclic α-amino ketone structure.
The nucleotide sequence encoding hKAT-II gene was constructed by Invitrogen, Thermo Fisher Scientific. The hKAT-II gene, optimized for heterologous expression in E. coli, was cloned into a pET15b vector using NdeI-XhoI. The hKAT-II protein, carrying an N-terminal hexahistidine tag, was produced in E.coli BL21(DE3)-RIL cells for 4 h at 37 °C. The bacterial cells were then harvested and disintegrated using One-Shot. […] (25.000× g, 30 min) centrifugation cleared cell lysate containing hKAT-II was loaded on the top of a HisTrap Fast Flow column (Cytiva) equilibrated in loading buffer (40 mM Tris, pH 8; 1000 mM NaCl, 40 µM PLP, 5 mM MgCl2, 20 mM imidazole). Following elution of the bound proteins by the loading buffer containing 600 mM imidazole, purified hKAT-II was dialyzed into a storage buffer (20 mM Hepes pH 7.5; 50 mM NaCl, 70 µM PLP, 10% glycerol), concentrated to 1.0–1.5 mg/mL, aliquoted, and stored at −80 °C.
hKAT-II activity was measured using a fluorescence assay utilizing L-α-aminoadipic acid (AAD) and α-ketoglutarate as the substrates as previously described. The assay medium (100 µL) consisted of 0.75 µM of hKAT-II, 0.3 mM of AAD, 50 µM α-ketoglutarate, 3 mM NAD^+, 88 µg/mL of glutamic dehydrogenase, and 5 µM pyridoxal phosphate (PLP) in a 0.1 M phosphate buffer pH 7.5. The activity of the enzyme was assessed on a Spark multiple mode reader (Tecan Group Ltd., Männedorf, Switzerland) with an excitation wavelength of 340 nm and emission wavelength of 390 nm at 37 °C. The plate was shaken for 20 s before reading. The kinetic interval was set at 30 s between each reading, and data were collected for 30 min. The activity of the enzyme was assayed in pentaplicate in each measurement (n = 3). Kinetic data were then collected over a period of 30 min, and the linear part of the initial velocity was used to calculate the enzyme activity expressed as the slope of the linearized curve via the linear regression function (Excel, Microsoft, USA).
The inhibitory activity of the tested compounds was determined via 30 min pre-incubation with the enzyme at various concentrations of the inhibitor at room temperature in a 0.1 M phosphate buffer pH 7.5 with 5 µM PLP. The enzyme reaction was initiated by the addition of a substrate and cofactors. The final mixture contained 20 nM of hKAT-II, 0.3 mM of AAD, 50 µM α-ketoglutarate, 3 mM NAD^+, and 88 µg/mL of glutamic dehydrogenase. Kinetic data were collected over a period of 30 min, and the slope of the linearized curve was calculated as above. The inhibitory activity in %I at a given concentration was calculated for novel compounds using the following equation:(1) Inhibition [%I]=(V0− Vi/V0)×100, where V0 and Vi are the activity of the enzyme in the absence and presence of the inhibitor, respectively. All the data were obtained in pentaplicate for each measurement (n = 3). Alternatively, the IC50 values for selected novel compounds were assessed. GraphPad Prism 8 software (San Diego, USA) was used for the IC50 value calculation using non-linear regression (four parameters). […]

T1 sequence (Q8N5Z0 30-425): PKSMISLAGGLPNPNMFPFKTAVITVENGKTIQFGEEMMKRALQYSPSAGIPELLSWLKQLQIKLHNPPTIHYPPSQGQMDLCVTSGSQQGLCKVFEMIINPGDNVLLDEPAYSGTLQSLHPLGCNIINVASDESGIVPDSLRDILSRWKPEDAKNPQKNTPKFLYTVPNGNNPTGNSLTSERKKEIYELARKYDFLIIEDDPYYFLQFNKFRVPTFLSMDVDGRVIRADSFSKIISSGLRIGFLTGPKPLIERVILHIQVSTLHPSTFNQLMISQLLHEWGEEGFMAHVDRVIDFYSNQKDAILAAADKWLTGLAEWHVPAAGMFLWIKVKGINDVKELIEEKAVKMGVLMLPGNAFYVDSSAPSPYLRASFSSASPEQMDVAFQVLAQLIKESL

Structure (SMILES) | IC50 [1] | Inhibitory Activity [%I ± SEM] c = 1 µM ([2]; 20 nM hKAT-II) | melting point | other results
CCS(=O)(=O)c1ccc(C(=O)C[C@H](N)C(=O)O)cc1 [Compound 1, (S)-ESBA] | 71000 nM | – | – | –
C[C@H]1COc2c(N3CCN(N)CC3)c(F)cc3c(=O)c(C(=O)O)cn1c23 [Compound 2, BFF-122] | 1000 nM | – | – | –
N[C@H]1Cc2cn(-c3ccccc3)nc2N(O)C1=O [Compound 4] | 25 nM | – | – | –
O=C1NC(=O)/C(=C/c2cccc(-c3ccc4c5c3CCC(=O)N5CC4)c2)S1 [Compound 5, BFF-816] | 13400 nM | – | – | –
CC1(C)[C@@H](O)CC[C@]2(C)[C@H]3C(=O)C=C4[C@@H]5C[C@@](C)(C(=O)O)CC[C@]5(C)CC[C@@]4(C)[C@]3(C)CC[C@@H]12 [Compound 6, glycyrrhetinic acid] | 7000 nM | – | – | –
NS(=O)(=O)c1ccc(N2C(=O)c3cc(Cl)c(Cl)cc3C2=O)cc1 [Compound 7] | 73800 nM | – | – | –
Cn1c(CN2CCOCC2)nc2sc([C@H]3CCCN3C(=O)OCc3ccccc3)nc2c1=O [Compound 8] | 610 nM | – | – | –
CC(C)[C@@H](Cc1nnc(NS(=O)(=O)c2cc(F)cc(F)c2)s1)c1cccc(F)c1 [Compound 9] | 880 nM | – | – | –
Cc1ccc(NC(=O)N2CCCC3(CCC(=O)N(CCC(C)C)C3)C2)cc1Cl (stereo not shown) [Compound 10] | 810 nM | – | – | –
C[C@H](N)C(=O)c1nc2ccccc2s1.Cl [Compound 34a] | – | 52.49 ± 1.31 %I | > 156 °C (dec.) | –
C[C@H](N)C(=O)c1nc2ccc(F)cc2s1 [Compound 34b] | – | 56.60 ± 3.68 %I | > 152 °C (dec.) | IC50 [2]: 987 ± 88 nM
CC[C@H](N)C(=O)c1nc2ccccc2s1.Cl [Compound 34c] | – | 36.16 ± 3.81 %I | > 140 °C (dec.) | –
CC[C@H](N)C(=O)c1nc2ccc(F)cc2s1.Cl [Compound 34d] | – | 9.73 ± 1.41 %I | > 145 °C (dec.) | –
CC[C@H](N)C(=O)c1ncc(-c2ccc(F)cc2)s1 [Compound 49b] | – | 57.07 ± 0.31 %I | > 150 °C (dec.) | –
C[C@H](N)C(=O)c1ncc(-c2ccc(F)cc2Cl)s1.Cl [Compound 49c] | – | 47.65 ± 1.71 %I | 127 to 134 °C (dec.) | –
CC[C@H](N)C(=O)c1ncc(-c2ccc(F)cc2Cl)s1.Cl [Compound 49d] | – | 59.71 ± 0.97 %I | > 134 °C (dec.) | IC50 ([2]; 30 min pre-incubation, 20 nM hKAT-II, non-linear regression (four parameters), read-out: IC50 ± SEM): 304 ± 39 nM
